Data reported in paper PMC4613828 (PLoS Pathogens, 2015).

Key:
[1] = test system: HRV14 (human rhinovirus type 14); test: Virus-cell-based antiviral assay (CPE reduction, MTS); settings: Human rhinovirus sp., HeLa H1 cells (footnote c), 35°C
[2] = test system: ECHO11 (echovirus 11 strain Gregory); test: as above; settings: Enterovirus B, BGM cells
[3] = test system: CVB4 (strain E2 Edwards); test: as above; settings: Enterovirus B, BGM cells
[4] = in vitro; settings: African green monkey
[5] = test system: EV71-B5 (strain TW/96016/08 genogroup B5); test: Virus-cell-based antiviral assay (CPE reduction, MTS); parameters: species or system enterovirus 71; settings: Enterovirus A; EV71 strain TW/96016/08 genogroup B5; RD cells
[6] = test system: PV1 (poliovirus type 1 strain Sabin); test: microbe, parasite or virus in culture; type: cell-based; settings: Enterovirus C, BGM
[7] = test system: CVA21 (strain Coe); test: Virus-cell-based antiviral assay (CPE reduction, MTS); settings: BGM cells
[8] = test system: PV2 (poliovirus type 2 strain Sabin); test: microbe, parasite or virus in culture; type: cell-based; settings: Enterovirus C, BGM
[9] = test system: PV3 (poliovirus type 3 strain Sabin); test: microbe, parasite or virus in culture; type: cell-based; settings: Enterovirus C, BGM
[10] = test system: CVA16 (strain G-10); test: Virus-cell-based antiviral assay (CPE reduction, MTS); parameters: species or system coxsackievirus A16; settings: Enterovirus A, HeLa H1 cells
[11] = test system: EV71-B2 (strain 11316 genogroup B2); test: as above; parameters: species or system enterovirus 71; settings: Enterovirus A; EV71 strain 11316 genogroup B2; RD cells
[12] = test system: HRV02 (human rhinovirus type 2); test: as above; settings: Human rhinovirus sp., HeLa H1 cells (footnote c), 35°C
[13] = test system: CVB3 (strain Nancy); test: as above; parameters: species or system Coxsackievirus B3; settings: Enterovirus B, BGM cells
[14] = test system: CVA9 (strain Bozek); test: as above; parameters: species or system Coxsackie A9; settings: Enterovirus B, BGM cells

Row | SMILES | EC50 [1] [µM] | EC50 [2] [µM] | EC50 [3] [µM] | CC50 [4] [µM] | EC50 [5] [µM] | EC50 [6] [µM] | EC50 [7] [µM] | EC50 [8] [µM] | EC50 [9] [µM] | EC50 [10] [µM] | EC50 [11] [µM] | EC50 [12] [µM] | EC50 [13] [µM] | EC50 [14] [µM]
1 | CCON=Cc1ccc(OCCC(C)CCN2CCN(c3ccnc(C(N)=O)c3)C2=O)cc1 (stereo not shown) [ALD] | 0.843 ± 0.013 | 2.1 ± 0.5 | > 7 | 7 ± 1 | 0.082 ± 0.023 | 3.5 ± 1.4 | 0.056 ± 0.04 | 0.075 ± 0.019 | 0.184 ± 0.008 | 0.043 ± 0.008 | 0.031 ± 0.012 | > 21 | 2.2 ± 0.2 | 5.4 ± 1
2 | CCON=Cc1ccc(OCCC(C)CCN2CCN(c3ccncc3)C2=O)cc1 (stereo not shown) [GPP3] | 1.5 ± 0.3 | 0.5 ± 0.1 | > 7 | 7 ± 2 | 0.00093 ± 0.0003 | 0.2 | 0.016 ± 0.015 | 0.006 | 0.066 | 0.014 ± 0.004 | 0.00096 ± 0.0006 | 1 ± 0.7 | 3.7 ± 0.2 | 1.5 ± 0.1
